One data set concerns the target T1, P2X7R (Mus musculus, UniProt Q9Z1M0).
T1 construct: plated for 24 h before dye uptake assays, whole-cell patch clamp experiments, and IL-1β release assays; endogenous in cells; host or cells: mouse (Swiss Webster) peritoneal macrophages
T1 sequence (Q9Z1M0 1-595): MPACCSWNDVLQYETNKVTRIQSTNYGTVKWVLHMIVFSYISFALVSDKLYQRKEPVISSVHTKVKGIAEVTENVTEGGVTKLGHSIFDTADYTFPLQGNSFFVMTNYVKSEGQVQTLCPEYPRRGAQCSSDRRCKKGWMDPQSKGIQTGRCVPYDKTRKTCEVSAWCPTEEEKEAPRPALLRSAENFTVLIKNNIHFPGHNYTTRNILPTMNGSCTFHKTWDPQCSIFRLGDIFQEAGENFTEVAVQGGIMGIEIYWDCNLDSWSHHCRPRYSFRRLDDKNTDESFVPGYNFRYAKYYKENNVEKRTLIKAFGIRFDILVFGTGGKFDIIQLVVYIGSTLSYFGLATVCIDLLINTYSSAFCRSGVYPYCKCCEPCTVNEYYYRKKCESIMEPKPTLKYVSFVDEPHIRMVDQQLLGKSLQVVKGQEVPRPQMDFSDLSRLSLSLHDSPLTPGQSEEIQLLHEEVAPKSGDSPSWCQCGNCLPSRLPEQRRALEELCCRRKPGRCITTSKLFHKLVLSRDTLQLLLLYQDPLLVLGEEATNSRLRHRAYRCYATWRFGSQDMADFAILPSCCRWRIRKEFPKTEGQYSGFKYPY
Put plainly: Dye uptake assay (propidium iodide) in mouse peritoneal macrophages. The class given is cell-based. As to conditions: mean ± SD. The method, then:
Our protocols adhered to the Ethical Principles in Animal Experimentation adopted by the Brazilian College of Animal Experimentation and approved by the FIOCRUZ Research Ethics Committee (Faria et al., [2005]; number L039- 2016). Male mouse (Swiss Webster) peritoneal macrophages were collected from peritoneal cavity lavage and plated for 24 h before dye uptake assays, whole-cell patch clamp experiments, and IL-1β release assays.
(§1) HEK-293 cells transfected with hP2X7R and mouse peritoneal macrophages were plated at 2.5 × 10^6 or 5 × 10^5 cells/ml, respectively, in 96-well culture plates containing DMEM with 10% FBS and anti-biotics (50 U/ml penicillin and […] streptomycin) in a humidified 5% CO2 atmosphere at 37°C for 24 h (Faria et al., [2018]).
[…] In the last 5 min of ATP incubation, propidium iodide for macrophages (PI; 750 nM) or ethidium bromide (EB; 25 μM) for HEK-293 cells was added to all wells. PI dye was excited at a wavelength of 530 nm, and its fluorescence emission was read at a wavelength of 590 nm using an M5 plate reader (Molecular Devices). EB dye was excited at a wavelength of 530 nm and emitted at a wavelength of 620 nm.

For another data set, the target named is T2, human P2X7R (Homo sapiens, UniProt Q99572).
T2 construct: expressed in transfected cells; host or cells: HEK-293
T2 sequence (Q99572 1-595): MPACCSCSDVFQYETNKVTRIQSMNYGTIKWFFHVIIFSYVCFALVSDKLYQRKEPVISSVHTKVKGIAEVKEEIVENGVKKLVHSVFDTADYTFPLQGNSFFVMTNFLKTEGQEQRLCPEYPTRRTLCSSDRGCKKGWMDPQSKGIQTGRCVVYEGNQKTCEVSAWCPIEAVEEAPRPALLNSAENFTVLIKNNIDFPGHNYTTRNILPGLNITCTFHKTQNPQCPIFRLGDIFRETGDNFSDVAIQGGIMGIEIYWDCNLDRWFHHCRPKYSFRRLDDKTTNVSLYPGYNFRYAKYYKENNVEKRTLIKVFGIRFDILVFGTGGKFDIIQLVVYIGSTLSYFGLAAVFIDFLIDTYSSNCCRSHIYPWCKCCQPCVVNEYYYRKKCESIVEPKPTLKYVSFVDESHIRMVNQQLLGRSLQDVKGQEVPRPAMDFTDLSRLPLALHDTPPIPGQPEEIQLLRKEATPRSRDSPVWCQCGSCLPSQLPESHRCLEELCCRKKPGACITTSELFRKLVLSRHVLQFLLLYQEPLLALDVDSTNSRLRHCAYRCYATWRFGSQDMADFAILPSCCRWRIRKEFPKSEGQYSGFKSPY
Description: Dye uptake assay (ethidium bromide) in HEK-293 cells transfected with hP2X7R. In kind it is cell-based. As to conditions: ethidium uptake assay; HEK-293 cells transfected with human P2X7R; mean ± SD. The method, then: HEK-293 cells expressing human P2X7R were maintained in Dulbecco's modified Eagle's medium (DMEM; Sigma-Aldrich) supplemented with 10% fetal bovine serum (FBS; Prolab, Br) and anti-biotics (50 U/ml penicillin and […] streptomycin) in a humidified 5% CO2 atmosphere at 37°C (Faria et al., [2018]). A total of 5 × 10^5 cells were plated at 37°C in a humidified 5% CO2 atmosphere for 24 h in a 96-well plate for dye uptake or IL-1β release assays.
as §1
P2X7R antagonist and thiadiazole analogs (1 nM to 0.5 mM) were incubated for 5 min before ATP (5 mM) treatment for 20 min. In the last 5 min of ATP incubation, propidium iodide for macrophages (PI; 750 nM) or ethidium bromide (EB; 25 μM) for HEK-293 cells was added to all wells. PI dye was excited at a wavelength of 530 nm, and its fluorescence emission was read at a wavelength of 590 nm using an M5 plate reader (Molecular Devices). EB dye was excited at a wavelength of 530 nm and emitted at a wavelength of 620 nm.

A short description of data set [1]: LDH release assay (toxicity). In kind it is cell-based, mouse. As to conditions: mouse peritoneal macrophages; 24 h; read-out: Macrophages IC50 (toxic effect). The method, then:
(§2) Mouse peritoneal macrophages (5 × 10^5 cells) and HEK-293 cells transfected with P2X7R (5 × 10^5 cells) were plated in a 96-well-plate for 24 h before the treatment. […] The supernatant collected in this assay was used to measure the presence of LDH in the media using a cytotoxicity detection kit (Sigma kit for LDH) according to the manufacturer's instructions (Faria et al., [2018]).
(LDH leaks from cells whose membrane has failed.)

The subject of data set [2] is mouse peritoneal macrophages. Description: LDH release assay (toxicity). The class given is cell-based. As to conditions: relative to maximum LDH release caused by 0.05% Triton X-100, mean ± SD. The method, then:
as §2

Data set [3] concerns P2X7R-mediated IL-1β release. Put plainly: ATP-induced IL-1β release (ELISA) in differentiated THP-1 cells. The class given is cell-based, human. As to conditions: ATP-induced IL-1β release; LPS/IFN-differentiated human THP-1 cells; read-out: THP-1 cells IC50. Background: In an ELISA, binding on a coated surface is turned into a signal by an enzyme label.
Description: P2X7R-mediated IL-1β release was obtained from differentiated THP-1 cells stimulated with lipopolysaccharide (LPS) before ATP addition. […] THP-1 cells were differentiated with 500 ng/ml phorbol 12-myristate 13-acetate (PMA) and 10 ng/ml IFN-γ cotreatment for 24 h. These cells were activated with 25 ng/ml LPS for 4 h. […] P2X7R antagonists (BBG and A740003) and thiadiazole analogs were added 30 min before the ATP stimulus. The supernatants were collected, centrifuged (1,000 rpm for 5 min at 4°C), and stored at −70°C after LPS incubation. IL-1β was quantified using a standard kit (ABCAM, Cambridge).
A further data set deals with T3, P2Y4R (Mus musculus, UniProt Q9JJS7).
T3 construct: endogenous in cells; host or cells: mouse peritoneal macrophages
Description: MRS4062-induced [Ca2+]i shifts in mice peritoneal macrophages. In kind it is cell-based. As to conditions: 1 μM. On the procedure:
(§3) Mouse peritoneal macrophages, PC12 cells, J774 cells, and HEPG2 cells were analyzed by fluorescence microscopy to measure the intracellular Ca^2+ concentrations ([Ca^2+]i). Cells were incubated with 2 μM Fura-2-AM (Molecular Probes) for 30 min, and the [Ca^2+]i mobilization was measured in the F340/F380 ratios with a FlexStation 3 multimode microplate reader (Molecular Devices). Cells were plated in translucent 96-well plates (BD Falcon) for 15 min and then washed and incubated in a saline solution with 150 NaCl, 5 KCl, 1 MgCl2, 1 CaCl2, and 10 HEPES (pH 7.4) for 30 min before measurements of [Ca^2+]i. The Ca^2+ influx was induced by stimulating cells with P2 receptor agonists. P2 receptor antagonists were added 10 min before P2 receptor agonist addition. […] Ionomycin was considered a positive control, and the other recordings were normalized in relation to the AUC.

In another data set the test system is P2Y11R. Description: NAADP-induced [Ca2+]i shifts in mouse peritoneal macrophages. The class given is cell-based. As to conditions: 1 μM. The method, then:
as §3

The target in the next data set is T4, P2Y12R (Mus musculus, UniProt Q9CPV9).
T4 construct: endogenous in cells; host or cells: mouse peritoneal macrophages
Description: 2MeSADP-activated [Ca2+]i shifts in mouse peritoneal macrophages. In kind it is cell-based. As to conditions: 1 μM.

Setting [4] is: percentage relative to the maximum uptake of propidium stimulated by 1 mM ATP only.

T3 sequence (Q9JJS7 whole entry): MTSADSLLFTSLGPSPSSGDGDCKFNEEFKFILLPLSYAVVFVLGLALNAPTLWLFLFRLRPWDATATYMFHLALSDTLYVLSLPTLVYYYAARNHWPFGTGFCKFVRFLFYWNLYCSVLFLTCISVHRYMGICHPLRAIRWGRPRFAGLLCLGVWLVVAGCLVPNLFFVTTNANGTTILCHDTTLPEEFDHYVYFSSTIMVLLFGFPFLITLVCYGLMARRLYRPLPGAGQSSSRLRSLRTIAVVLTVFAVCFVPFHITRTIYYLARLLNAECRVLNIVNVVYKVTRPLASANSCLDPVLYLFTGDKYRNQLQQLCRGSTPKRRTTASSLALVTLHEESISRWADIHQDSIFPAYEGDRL
T4 sequence (Q9CPV9 whole entry): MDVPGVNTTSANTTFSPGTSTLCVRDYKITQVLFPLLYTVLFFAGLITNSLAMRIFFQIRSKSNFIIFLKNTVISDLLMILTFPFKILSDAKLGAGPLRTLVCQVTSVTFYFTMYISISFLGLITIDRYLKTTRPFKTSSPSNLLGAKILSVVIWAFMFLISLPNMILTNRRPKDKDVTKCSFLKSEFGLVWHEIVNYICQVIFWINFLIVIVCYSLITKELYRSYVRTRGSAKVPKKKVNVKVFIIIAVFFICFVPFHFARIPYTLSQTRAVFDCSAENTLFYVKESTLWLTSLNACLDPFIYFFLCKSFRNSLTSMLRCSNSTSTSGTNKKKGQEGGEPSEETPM

Take `CCOc1ccc(Nc2ccc(/C(=C3C=C/C(=[N+](/CC)Cc4cccc(S(=O)(=O)[O-])c4)C=C/3C)c3ccc(N(CC)Cc4cccc(S(=O)(=O)O)c4)cc3C)cc2)cc1` [BBG, Brilliant Blue G, reference compound]: at P2X7R (BBG 750 nM, percentage relative to the maximum uptake of propidium stimulated by 1 mM ATP only), at 0.75 µM the inhibition was 78.8 ± 3.8%. Moreover, the half-inhibitory concentration (IC50) (in general, the concentration that gives 50% inhibition) against P2X7R (propidium uptake assay, mice peritoneal macrophages) came out at 1200 ± 100 nM; at human P2X7R it was 589 ± 12 nM; in data set [3], 1900 ± 300 nM. The IC50 at 24 h in data set [1] was 87000 ± 1000 nM. Also, the “% LDH release” value in [2] (BBG 750 nM) was found to be 13.2 ± 2.6%.
In the case of `N#Cc1cnn(-c2nnc(-c3ccccc3)s2)c1N` [Compound 9a], the melting point (as a rule, the temperature, or range, at which the solid turns liquid) lay within 234 to 235 °C. The inhibition (usually the change of the read-out against control, counted positive when it falls) at 10 µM at P2X7R (setting [4]) amounted to 89.2 ± 2.2%. Moreover, the “% LDH release” value in [2] (10 μM, cell type not given) amounted to 58.1 ± 4.8%.
For `N#Cc1cnn(-c2nnc(-c3ccc(Cl)cc3)s2)c1N` [Compound 9d] the same measures were > 300 °C, 62.2 ± 4.02% and 46.3 ± 5.12%.
For `CCOC(=O)c1cnn(-c2nnc(-c3ccccc3)s2)c1N` [Compound 9e] the same measures were 165 to 167 °C, 90.2 ± 0.4% and 36.3 ± 11.0%.
The like results for `CCOC(=O)c1cnn(-c2nnc(-c3ccc(F)cc3)s2)c1N` [Compound 9g] were, in that order, 250 to 251 °C, 90.8 ± 1.1% and 22.6 ± 0.3%.
With `CCOC(=O)c1cnn(-c2nnc(-c3ccc(Cl)cc3)s2)c1N` [Compound 9h], the melting point was in the range of 252 to 253 °C. Also, on P2X7R (setting [4]), 10 µM produced 64 ± 3.7% inhibition. Moreover, the “% LDH release” value in data set [2] (10 μM, cell type not given) turned out to be 15 ± 1.9%.
The like results for `Cc1cc(C)n(-c2nnc(-c3ccccc3)s2)n1` [Compound 11a] were, in that order, 170 to 171 °C, 92.5 ± 0.3% and 34.1 ± 2%.
The like results for `Cc1cc(C)n(-c2nnc(-c3ccccc3Cl)s2)n1` [Compound 11b] were, in that order, 163 to 165 °C, 89.7 ± 2.6% and 45.7 ± 1.7%.
The like results for `Cc1cc(C)n(-c2nnc(-c3ccc(Cl)cc3)s2)n1` [Compound 11d] were, in that order, 202 to 203 °C, 69.8 ± 0.7% and 36.94 ± 10.6%.
Compound `CC1(O)CC(C(F)(F)F)=NN1c1nnc(-c2ccccc2)s1` (centres unmarked) [Compound 13a] returned a melting point of 183 to 185 °C. This compound yielded an inhibition at 10 µM at P2X7R (setting [4]) of 90.5 ± 1.4%. The “% LDH release” value in [2] (10 μM, cell type not given) is listed as 8 ± 0.6%.
With `CC1(O)CC(C(F)(F)F)=NN1c1nnc(-c2ccccc2Cl)s1` (centres unmarked) [Compound 13b], on P2X7R (setting [4]), the inhibition at 10 µM amounted to 90.7 ± 1.6%. Also, the “% LDH release” value in data set [2] (10 μM, cell type not given) is 19.6 ± 0.6%.
In the case of `CC1(O)CC(C(F)(F)F)=NN1c1nnc(-c2ccc(F)cc2)s1` (centres unmarked) [Compound 13c], the melting point was 182 to 183 °C. At P2X7R (setting [4]), the inhibition at 10 µM was determined as 92 ± 0.4%. Also, in [2] (10 μM, cell type not given), the “% LDH release” value is reported as 45.3 ± 1.4%.
The like results for `CC1(O)CC(C(F)(F)F)=NN1c1nnc(-c2ccc(Cl)cc2)s1` (centres unmarked) [Compound 13d] were, in that order, 184 to 185 °C, 71 ± 0.2% and 38.5 ± 6.2%.
Regarding `Cc1cc(C(F)(F)F)nn1-c1nnc(-c2ccccc2)s1` [Compound 14a], the melting point lay within 163 to 164 °C. This compound registered an inhibition at 10 µM against P2X7R (setting [4]) of 91 ± 1%. The “% LDH release” value in data set [2] (10 μM, cell type not given) came out at 32 ± 1%.
`Cc1cc(C(F)(F)F)nn1-c1nnc(-c2ccccc2Cl)s1` [Compound 14b] gave a melting point of 139 to 140 °C. For the same compound, the inhibition at 10 µM against P2X7R (setting [4]) is 92 ± 2%. In addition, the “% LDH release” value in data set [2] (10 μM, cell type not given) was 26.6 ± 1.2%.
For `Cc1cc(C(F)(F)F)nn1-c1nnc(-c2ccc(F)cc2)s1` [Compound 14c] the same measures were 149 to 150 °C, 92.5 ± 0.4% and 10.6 ± 0.5%.
The like results for `Cc1cc(C(F)(F)F)nn1-c1nnc(-c2ccc(Cl)cc2)s1` [Compound 14d] were, in that order, 147 to 148 °C, 54.7 ± 0.5% and 43 ± 5%.
Turning to `S=C=Nc1cccc(NC(=S)NCCCCNC(=S)Nc2cccc(N=C=S)c2)c1` [MRS2578], the “Effect on MRS4062-induced [Ca2+]i shifts” value on P2Y4R is recorded as “inhibited”.
Turning to `Cc1ccc(C(=O)Nc2cc(S(=O)(=O)O)cc3ccc(S(=O)(=O)O)cc23)cc1NC(=O)Nc1cc(C(=O)Nc2cc(S(=O)(=O)O)cc3ccc(S(=O)(=O)O)cc23)ccc1C` [NF340], in the data set on P2Y11R, the “Effect on NAADP-induced [Ca2+]i shifts” value is listed as “inhibited”.
As for `CCCSc1nc(N[C@@H]2C[C@H]2c2ccc(F)c(F)c2)c2nnn([C@@H]3C[C@H](OCCO)[C@@H](O)[C@H]3O)c2n1` [Ticagrelor], the “Effect on 2MeSADP-activated [Ca2+]i shifts” value on P2Y12R is “inhibited”.

The values above are taken from publication PMC6511888, “Synthesis, Biological Evaluation, and Molecular Modeling Studies of New Thiadiazole Derivatives as Potent P2X7 Receptor Inhibitors” (Frontiers in Chemistry, 2019).
